Experiment [1] has as its target T1, Glycogen synthase kinase-3 (Homo sapiens, UniProt P49840+P49841). The class given is protein assay.
Description: Inhibition of glycogen synthase kinase-3 (unknown origin)
Experiment [2] concerns the target T2, Glycogen synthase kinase-3 beta (Homo sapiens, UniProt P49841).
Description: Competitive inhibition of glycogen synthase kinase-3 beta (unknown origin) using GS-1 as substrate after 30 mins by scintillation counting analysis in presence of [gamma-32P]-ATP
Experiment [3] has as its target T2, Glycogen synthase kinase-3 beta. Kind of experiment: Inhibition of glycogen synthase kinase-3 beta (unknown origin) using GS-1 as substrate after 20 mins by scintillation counting analysis in presence of [gamma-32P]-ATP.
Experiment [4] concerns the target T1, Glycogen synthase kinase-3. Kind of experiment: Competitive inhibition of glycogen synthase kinase-3 (unknown origin) in presence of ATP. The class given is protein assay.

T2 sequence (P49841 whole entry): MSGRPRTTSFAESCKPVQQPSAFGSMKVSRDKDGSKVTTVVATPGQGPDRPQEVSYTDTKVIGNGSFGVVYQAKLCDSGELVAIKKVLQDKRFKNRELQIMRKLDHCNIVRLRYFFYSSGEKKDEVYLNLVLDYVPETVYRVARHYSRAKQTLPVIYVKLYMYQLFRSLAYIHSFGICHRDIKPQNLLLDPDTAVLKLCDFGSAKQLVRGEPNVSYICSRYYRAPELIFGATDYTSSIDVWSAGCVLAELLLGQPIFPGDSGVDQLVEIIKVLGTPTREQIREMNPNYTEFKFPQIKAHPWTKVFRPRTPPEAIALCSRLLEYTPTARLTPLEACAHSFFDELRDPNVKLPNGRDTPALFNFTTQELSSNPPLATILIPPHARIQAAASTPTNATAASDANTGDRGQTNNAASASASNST

For the compound `CC(=O)C1=C(c2cn(C)c3ccccc23)C(=O)NC1=O`, the 50% inhibitory concentration (IC50) (commonly the point on the concentration scale where inhibition reaches its midpoint) in experiment [1] amounted to 4.47 µM. Consider `O=C1Nc2ccccc2/C1=C1/Nc2cc(Br)ccc2C1=O`, for which the IC50 in experiment [2] turned out to be 0.004 µM. As to `O=C(CBr)c1ccc(C2C(=O)c3ccccc3C2=O)cc1`, the IC50 in experiment [3] is 100 µM. Turning to `Br.CCOC(=O)C/N=C1\NC(c2ccccc2)N(c2ccccc2)S1` (centres undefined), the IC50 in experiment [1] was determined as 7.05 µM. On the same count and under the same terms, as for `Clc1cccc(C2=NC(c3ccccc3)=NN(c3ccccc3)c3ccccc32)c1`, the figure is 3.38 µM. Consider `O=S=C(CCl)c1ccc(Cl)cc1`, for which, in experiment [3], the 50% inhibitory concentration (IC50) is > 100 µM. `Br.Br.c1ccc(C/N=C2\NC(c3ccccc3)N(c3ccccc3)S2)cc1` (centres undefined) yielded an IC50 in experiment [1] of 1.28 µM. On to `COc1ccc(CNC(=O)Nc2nc(C)c(C(C)=O)s2)cc1`, for which, in experiment [4], the 50% inhibitory concentration (IC50) is 0.4 µM. For `O=C1Nc2ccccc2/C1=C1/Nc2ccccc2C1=O` [INDIRUBIN], the half-maximal inhibitory concentration (IC50) in experiment [2] amounted to 0.004 µM.
